Where two headings read alike, the source gives them in different places.
What was measured:
[1] = test system: PP1; experiment: PP1 Assay; assay type: biochemical; settings: Table 6
Procedure: E) PP1 Assay: Inhibition of the phosphatase PP1 was performed according to reported procedures (Nat. Biotechnol., 2000, 18, 847).

[2] = target: T1, SHP1 (Homo sapiens, UniProt P29350); experiment: Phosphatase profile: SHP1 inhibition (DIFMUP fluorescence); assay type: biochemical
T1 construct: made in house; host or cells: adenovirus vector
T1 sequence (P29350 whole entry): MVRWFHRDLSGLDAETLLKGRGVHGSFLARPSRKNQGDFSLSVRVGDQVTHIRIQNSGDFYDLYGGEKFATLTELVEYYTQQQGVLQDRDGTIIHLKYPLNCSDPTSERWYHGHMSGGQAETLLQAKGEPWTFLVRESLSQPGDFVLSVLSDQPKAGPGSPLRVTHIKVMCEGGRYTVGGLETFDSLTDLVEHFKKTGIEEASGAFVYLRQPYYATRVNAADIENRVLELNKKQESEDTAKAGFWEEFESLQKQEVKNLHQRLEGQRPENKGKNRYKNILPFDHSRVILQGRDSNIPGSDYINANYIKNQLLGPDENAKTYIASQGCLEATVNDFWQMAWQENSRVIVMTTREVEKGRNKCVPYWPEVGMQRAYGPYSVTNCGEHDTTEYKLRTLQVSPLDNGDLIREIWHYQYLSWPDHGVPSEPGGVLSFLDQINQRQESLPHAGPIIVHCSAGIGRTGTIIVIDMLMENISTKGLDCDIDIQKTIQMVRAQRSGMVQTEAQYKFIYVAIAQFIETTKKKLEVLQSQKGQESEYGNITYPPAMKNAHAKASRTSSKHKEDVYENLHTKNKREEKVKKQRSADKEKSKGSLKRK
Procedure: A) SHP1 and SHP2: SHP1 and SHP2 adenovirus vectors were prepared. SHP1 and SHP2 were independently over expressed, isolated and purified using FPLC. Enzyme was diluted to 1000-1400 FU/min. Enzyme (45 μL) was uniformLy plated in 96 well plates and treated with serial dilutions of compound (2 μL in DMSO). Compound and enzyme are allowed to incubate for 30 minutes at RT before the addition of DIFMUP (100 μM). The solutions are allowed to incubate at RT for 10 minutes prior to reading the fluorescence, to provide IC50 curves using LSW Data Analysis Tool Box (MDL).

[3] = target: T2, CD45 (Homo sapiens, UniProt P08575); experiment: CD45 (PTPase) Assay; assay type: biochemical; settings: Table 6
T2 construct: purchased BIOMOL Research Laboratories, Inc
T2 sequence (P08575 26-1306): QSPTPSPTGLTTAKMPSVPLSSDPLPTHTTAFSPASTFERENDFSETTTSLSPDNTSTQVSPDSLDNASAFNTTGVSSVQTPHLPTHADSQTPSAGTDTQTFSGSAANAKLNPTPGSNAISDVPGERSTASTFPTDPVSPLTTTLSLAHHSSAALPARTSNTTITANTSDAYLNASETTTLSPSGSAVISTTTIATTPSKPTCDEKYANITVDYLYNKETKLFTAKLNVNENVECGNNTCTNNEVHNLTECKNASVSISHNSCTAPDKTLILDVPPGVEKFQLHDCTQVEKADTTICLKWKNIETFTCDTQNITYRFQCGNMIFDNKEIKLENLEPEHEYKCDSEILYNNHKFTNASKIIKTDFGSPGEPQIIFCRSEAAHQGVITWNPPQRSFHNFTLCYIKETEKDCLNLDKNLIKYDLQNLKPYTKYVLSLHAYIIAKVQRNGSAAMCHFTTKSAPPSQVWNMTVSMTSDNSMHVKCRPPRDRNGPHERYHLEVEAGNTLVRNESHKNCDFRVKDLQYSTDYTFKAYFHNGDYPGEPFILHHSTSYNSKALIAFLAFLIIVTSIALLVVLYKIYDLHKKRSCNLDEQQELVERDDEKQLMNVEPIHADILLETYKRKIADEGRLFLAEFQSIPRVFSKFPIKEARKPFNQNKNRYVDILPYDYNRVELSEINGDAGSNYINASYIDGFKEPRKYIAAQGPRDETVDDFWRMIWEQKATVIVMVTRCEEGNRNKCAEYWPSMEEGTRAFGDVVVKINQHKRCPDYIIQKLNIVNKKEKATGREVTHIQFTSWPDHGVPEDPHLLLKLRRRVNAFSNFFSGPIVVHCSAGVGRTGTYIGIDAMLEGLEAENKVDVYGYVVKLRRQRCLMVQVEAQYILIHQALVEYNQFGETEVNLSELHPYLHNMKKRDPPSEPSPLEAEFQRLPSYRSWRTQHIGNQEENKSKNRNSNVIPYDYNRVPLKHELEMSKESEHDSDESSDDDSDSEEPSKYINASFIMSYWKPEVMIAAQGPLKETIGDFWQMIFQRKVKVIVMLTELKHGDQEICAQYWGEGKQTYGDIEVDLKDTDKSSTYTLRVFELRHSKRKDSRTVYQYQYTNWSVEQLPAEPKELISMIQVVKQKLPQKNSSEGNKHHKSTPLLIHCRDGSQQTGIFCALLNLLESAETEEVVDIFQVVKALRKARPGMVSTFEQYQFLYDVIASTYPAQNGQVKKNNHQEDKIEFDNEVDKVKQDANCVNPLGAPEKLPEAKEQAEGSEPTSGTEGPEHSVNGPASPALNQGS
Procedure: D) CD45 (PTPase) Assay: Inhibition of the phosphatase CD45 was performed according to reported procedures (Pacitti, A. et al Biochem. Biophys. Acta, 1994, 1222, 277; Fisher, D. K. and Higgins, T. J. Pharmacol. Res., 1994, 11, 759). CD45 was purchased from BIOMOL Research Laboratories, Inc.

[4] = test system: SCG neurons; experiment: Protection of SCG neurons from anti-NGF killing; assay type: cell-based, Sprague Dawley rats; settings: Rattus norvegicus, Neuron; anti-NGF antibody, 48 hours, Alamar Blue viability; read-out: IC50, rescue from anti-NGF killing of cultured SCG neurons
Procedure: Neurotrophins are critical to the growth, development, and survival of small fiber neurons of the PNS. SCG neurons are neurons of the PNS that undergo apoptosis upon NGF withdrawal. In a typical experiment SCG neurons are cultured in the presence of NGF, which induces survival and neurite out-growth. After 5 days the NGF is removed by either the addition of anti-NGF polyclonal antibody (Sigma) or by repeated washings (4 times) with NGF free media, resulting in the apoptosis of up to 90% of the neurons after 48 hours, as measured by MTS staining. The addition of selected compounds of Formula I to the final cellular media provides upwards of 100% protection, at drug concentrations ranging from 10 to 50 μM (see Example 62).
Protection of SCG neurons from anti-NGF killing. SCG neurons were isolated from day 1 neonatal Sprague Dawley rats, plated at a cell density of 5,000 cells/well, and incubated in Biowhittaker Ultraculture containing 1% Penstrep, 1% L-glutamine, 0.7% ARAC, 3% rat serum, and NGF (50 ng/mL, Calomone Labs), at 37° C., under a 5% CO2 atmosphere. After 4 days the cells were treated with anti-NGF antibody (Sigma). At this time compound was added and the cells were maintained serum and NGF free for 48 hours, at which time viability of the neurons was assessed using Alamar Blue (Medicorp) staining. Table 3 summarizes selected IC50 values from compounds tested using this protocol.

[5] = target: T3, LAR (Homo sapiens, UniProt P10586); experiment: LAR Assay; assay type: biochemical; settings: Table 6
T3 construct: purchased BIOMOL Research Laboratories, Inc
T3 sequence (P10586 30-1907, species assumed): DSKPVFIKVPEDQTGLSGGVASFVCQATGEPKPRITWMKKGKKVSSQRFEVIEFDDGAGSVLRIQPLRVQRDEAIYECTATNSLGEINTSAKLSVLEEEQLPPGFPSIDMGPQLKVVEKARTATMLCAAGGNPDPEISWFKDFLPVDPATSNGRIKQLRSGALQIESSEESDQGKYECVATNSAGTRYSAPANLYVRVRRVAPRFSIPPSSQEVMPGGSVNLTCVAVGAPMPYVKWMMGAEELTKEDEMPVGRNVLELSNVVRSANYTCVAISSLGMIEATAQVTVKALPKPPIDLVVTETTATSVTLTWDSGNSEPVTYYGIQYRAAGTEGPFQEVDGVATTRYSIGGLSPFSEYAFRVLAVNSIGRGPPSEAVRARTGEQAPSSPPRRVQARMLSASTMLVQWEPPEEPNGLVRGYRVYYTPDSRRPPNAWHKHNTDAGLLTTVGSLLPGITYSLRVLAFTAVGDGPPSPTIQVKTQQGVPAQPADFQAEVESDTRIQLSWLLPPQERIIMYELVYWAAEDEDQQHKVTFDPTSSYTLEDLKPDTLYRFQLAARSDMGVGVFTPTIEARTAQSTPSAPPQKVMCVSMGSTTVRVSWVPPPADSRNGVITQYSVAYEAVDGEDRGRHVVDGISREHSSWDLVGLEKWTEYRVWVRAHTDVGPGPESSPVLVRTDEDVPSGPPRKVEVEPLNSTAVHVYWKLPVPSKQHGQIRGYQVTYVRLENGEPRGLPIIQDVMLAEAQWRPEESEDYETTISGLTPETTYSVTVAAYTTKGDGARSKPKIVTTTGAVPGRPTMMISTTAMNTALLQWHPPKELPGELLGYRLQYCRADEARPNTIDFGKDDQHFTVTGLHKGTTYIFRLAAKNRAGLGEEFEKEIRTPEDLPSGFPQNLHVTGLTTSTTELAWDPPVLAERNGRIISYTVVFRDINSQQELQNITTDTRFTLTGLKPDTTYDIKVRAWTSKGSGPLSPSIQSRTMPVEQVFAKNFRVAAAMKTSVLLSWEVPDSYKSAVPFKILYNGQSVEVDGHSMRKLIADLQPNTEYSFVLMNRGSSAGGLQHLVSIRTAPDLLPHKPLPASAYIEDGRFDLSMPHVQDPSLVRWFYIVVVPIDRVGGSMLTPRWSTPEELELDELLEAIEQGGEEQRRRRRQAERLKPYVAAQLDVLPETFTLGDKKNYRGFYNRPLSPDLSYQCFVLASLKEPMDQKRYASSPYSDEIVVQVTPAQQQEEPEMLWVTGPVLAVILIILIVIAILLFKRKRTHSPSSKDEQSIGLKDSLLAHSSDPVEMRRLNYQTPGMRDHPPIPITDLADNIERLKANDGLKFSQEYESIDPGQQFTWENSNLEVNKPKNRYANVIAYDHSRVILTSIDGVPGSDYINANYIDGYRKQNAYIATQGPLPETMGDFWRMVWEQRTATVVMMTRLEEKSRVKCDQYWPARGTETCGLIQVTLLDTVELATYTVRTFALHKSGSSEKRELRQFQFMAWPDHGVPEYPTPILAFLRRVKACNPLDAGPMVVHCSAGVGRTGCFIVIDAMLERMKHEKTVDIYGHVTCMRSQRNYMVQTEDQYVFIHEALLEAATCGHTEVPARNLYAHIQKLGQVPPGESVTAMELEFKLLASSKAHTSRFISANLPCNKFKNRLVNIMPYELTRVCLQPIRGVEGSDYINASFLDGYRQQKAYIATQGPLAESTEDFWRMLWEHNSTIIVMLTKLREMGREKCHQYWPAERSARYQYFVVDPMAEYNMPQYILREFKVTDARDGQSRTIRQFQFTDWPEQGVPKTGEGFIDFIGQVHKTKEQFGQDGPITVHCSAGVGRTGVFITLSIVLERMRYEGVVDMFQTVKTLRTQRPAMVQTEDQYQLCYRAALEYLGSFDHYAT
Procedure: C) LAR Assay: Inhibition of the phosphatase LAR was performed according to reported procedures (Cho, H. Biochemistry 1991, 30, 6210; 1992, 31, 133; Cho, H. Prot. Sci., 1993, 2, 977). LAR was purchased from BIOMOL Research Laboratories, Inc.

Row | SMILES | PP1 IC50 [1] | IC50 ([2]; FIG. 1 legend, read-out: SHP1 IC50 (FIG. 1 inhibition curve)) [µM] | IC50 ([2]; Table 6, read-out: SHP1 IC50) [µM] | C45 IC50 [3] | IC50 [4] [µM] | IC50 [5] [µM] | LAR IC50 [5]
1 | O=c1oc2c(Sc3ccc4ccccc4c3)cc(O)cc2s1 [Compound 23, 5-Hydroxy-7-((2-naphthy)sulfanyl)benzo[1,3]oxathiol-2-one] | no inh. | 10.6 | 10.9 | no inh. | 25 | > 100 | –
2 | O=c1oc2c(Sc3ccc4ccccc4c3)cc(O)c(Sc3ccc4ccccc4c3)c2s1 [Compound 30, 4,7-Bis-((2-naphthyl)sulfanyl)-5-hydroxybenzo[1,3]oxathiol-2-one] | no inh. | – | 5.41 | no inh. | > 30 | – | no inh.

From patent US20060234987A1, “Neuroprotective benzo 1 3 oxathiol 2 ones” (priority 2003, published 2006)
